These results are taken from patent US20080114047A1 (priority 2003, published 2008).

The subject of data set [1] is Trypanosoma brucei rhodesiense. Kind of data set: Anti-protozoan data: T.b.r. IC50. It is filed as cell-based. The conditions noted are these: read-out: T.b.r. IC50.
In a further data set the test system is Trypanosoma cruzi. Kind of data set: Anti-protozoan data: T. cruzi IC50. The format is cell-based. The settings on record: read-out: T. cruzi IC50.
Another data set relates to Plasmodium falciparum. Kind of data set: Anti-protozoan data: P. falcip. IC50. The format is cell-based. The conditions noted are these: read-out: P. falcip. IC50.
For the next data set, the system named is Candida albicans. Kind of data set: Anti-fungal data: Candida albicans. The format is cell-based.
Another data set relates to Aspergillus fumigatus. The data set is described as follows: Anti-fungal data: Aspergillus fumigatus. It is filed as cell-based.
Data set [2] concerns L. donovani axenic amastigotes. The data set is described as follows: In vitro anti-leishmania activity (IC50 vs. L. donovani axenic amastigotes). It is filed as cell-based. The settings on record: Leishmania donovani.
Data set [3] concerns Mycobacterium tuberculosis. Kind of data set: Compounds tested against Mycobacterium tuberculosis (MIC90). It is filed as cell-based. The conditions noted are these: Table VII(b), read-out: M. tb MIC90.
[4] abbreviates: Tables VI(a), VI(c), read-out: Leishmania donovani IC50.
[5] abbreviates: axenic amastigotes, Tables I-V, read-out: IC50 vs. L. donovani.

Each structure is given as a SMILES string. Several values for one entry are separate records, joined by “and”; a condition that tells them apart may be missing. Equal entries are not always repeated. Where two headings read alike, the source gives them in different places.

As a reminder, the IC50 is the concentration that gives 50% inhibition. What is called MFC is the lowest tested concentration that kills the fungus rather than only halting it. A lower MFC goes with greater fungicidal potency. A word on the MIC80: it is an inhibitory concentration at the 80% level, which refers to growth in some studies and to a panel of isolates in others. A low value points to greater potency. One may read the melting point as the temperature of the solid-liquid transition. As for `Cl.Cl.c1cc(C2=NCCN2)ccc1OCCCOc1ccc(-c2cc3cc(C4=NCCN4)ccc3o2)cc1` [Compound 46, 2-(2-(4-(3-(4-(4,5-Dihydro-1H-imidazol-2-yl)phenoxy)propoxy)phenyl)benzofuran-5-yl)-4,5-dihydro-1H-imidazole dihydrochloride], the melting point fell in the range of 262 to 263 °C. The half-inhibitory concentration (IC50) in data set [1] (Tables VI(a), VI(c)) was 0.0606 µM. In the data set with Trypanosoma cruzi (Tables VI(a), VI(c)), the IC50 was determined as 7.6 µM. Besides, the IC50 in the data set with Plasmodium falciparum (Tables VI(a), VI(c)) is 0.0432 µM. In addition, in the data set with Candida albicans (strain A39), the MFC was determined as 10 µg/mL and the MIC80 was found to be 10 µg/mL. Besides, the MIC in the data set on Candida albicans (strain A39, read-out: Candida albicans (A39) MIC100) was 10 µg/mL. The molecule also showed an MIC80 with Aspergillus fumigatus (strain DUMC 168.95) of 10 µg/mL. In addition, in the data set with Aspergillus fumigatus (strain DUMC 168.95, read-out: Aspergillus. Fumigatus (DUMC 168.95) MIC100), the MIC was over 100 µg/mL. Besides, the IC50 in the data set “in vitro” was determined as 10.3 µM.
Take `Cl.Cl.c1cc(OCCCCCOc2ccc(C3=NCCN3)cc2)cc(-c2cc3ccc(C4=NCCN4)cc3o2)c1` [Compound 64, 2-(2-(3-(5-(4-(4,5-Dihydro-1H-imidazol-2-yl)phenoxy)pentyloxy)phenyl)benzofuran-6-yl) -4,5-dihydro-1H-imidazole dihydrochloride]: the melting point was 188 to 190 °C. For the same molecule, the IC50 in data set [2] (setting [4]) is 16.5 ± 3.45 µM. In addition, the IC50 in data set [2] (setting [5]) was found to be 16.5 ± 3.45 µM. For the same molecule, in data set [1] (Tables VI(a), VI(c)), the IC50 amounted to 0.442 µM. For the same molecule, the IC50 in the data set on Trypanosoma cruzi (Tables VI(a), VI(c)) is 3.62 µM. For the same molecule, in the data set on Plasmodium falciparum (Tables VI(a), VI(c)), the IC50 was found to be 0.0469 µM. Also, half-maximal inhibition in the data set “in vitro” (IC50) was put at 3.7 µM.
Molecule `CC(C)NC(=N)c1ccc(OCCCCOc2ccc(-c3cc4ccc(C(=N)NC(C)C)cc4o3)cc2)cc1.Cl.Cl` [Compound 72, 2-(4-(4-(4-(N-Isopropylcarbamimidoyl)phenoxy)butoxy)phenyl)-N-isopropylbenzofuran-6-carboxamidine dihydrochloride] gave a melting point of 280 to 283 °C. The IC50 in data set [2] (setting [4]) stood at 4.52 ± 1.81 µM. For the same molecule, in data set [2] (setting [5]), the IC50 worked out at 4.52 ± 1.81 µM. Moreover, the IC50 in [1] (Tables VI(a), VI(c)) came to 1.75 µM. Moreover, the IC50 in the data set on Trypanosoma cruzi (Tables VI(a), VI(c)) is 12.5 µM. For the same molecule, in the data set on Plasmodium falciparum (Tables VI(a), VI(c)), the IC50 is 0.139 µM. Further, the IC50 in “in vitro” was determined as 15.9 µM.
As for `Cl.Cl.c1cc(C2=NCCN2)ccc1OCCCCOc1ccc(-c2cc3ccc(C4=NCCN4)cc3o2)cc1` [Compound 73, 2-(2-(4-(4-(4-(4,5-Dihydro-1H-imidazol-2-yl)phenoxy)butoxy)phenyl)benzofuran-6-yl)-4,5-dihydro-1H-imidazole dihydrochloride], the melting point fell in the range of 306 to 307 °C. In addition, the IC50 in [2] (setting [4]) came out at 13.2 ± 0.86 µM. In addition, the IC50 in data set [2] (setting [5]) came to 13.2 ± 0.86 µM. In data set [1] (Tables VI(a), VI(c)), the IC50 is 0.942 µM. The IC50 in the data set on Trypanosoma cruzi (Tables VI(a), VI(c)) worked out at 9.82 µM. In addition, in the data set on Plasmodium falciparum (Tables VI(a), VI(c)), the IC50 turned out to be 0.0461 µM. The IC50 in “in vitro” was 16.9 µM.
Molecule `Cl.Cl.c1cc(C2=NCCN2)ccc1OCCCCCOc1ccc(-c2cc3ccc(C4=NCCN4)cc3o2)cc1` [Compound 76, 2-(2-(4-(5-(4-(4,5-Dihydro-1H-imidazol-2-yl)phenoxy)pentyloxy)phenyl)benzofuran-6-yl)-4,5-dihydro-1H-imidazole dihydrochloride] came in with a melting point of 212 to 215 °C. Also, the IC50 in data set [2] (setting [4]) stood at 10.4 ± 0.78 µM. The IC50 in data set [2] (setting [5]) was 10.4 ± 0.78 µM. Also, in [1] (Tables VI(a), VI(c)), the IC50 was 0.262 µM. Besides, the half-maximal inhibitory concentration (IC50) in the data set on Trypanosoma cruzi (Tables VI(a), VI(c)) was 2.12 µM. Also, the IC50 with Plasmodium falciparum (Tables VI(a), VI(c)) was 0.028 µM. In the data set “in vitro”, this molecule came in with a concentration for half-maximal inhibition (IC50) of 3.2 µM.
As usually defined, the MIC90 is the lowest concentration that inhibits either 90% of growth or 90% of the strains tested, depending on the study. For `N=C(N)c1cccc(-c2cc3cc(C(=N)N)ccc3o2)c1` [Compound 166, 2-(3-carbamimidoylphenyl)benzofuran-5-carboxamidine], the IC50 in data set [2] (setting [5]) stood at 5.82 ± 0.06 µM; in data set [2] (read-out: L. Donovani IC50), 5.82 ± 0.06 µM; in [1], 0.0241 µM; in the data set with Trypanosoma cruzi, 23.4 µM; in the data set on Plasmodium falciparum, 0.0191 µM; in “in vitro”, 21.2 µM. In data set [3], the MIC90 is 11.9 µg/mL and 31.6 µM.
In the case of `CC(C)NC(=N)c1cccc(-c2cc3cc(C(=N)NC(C)C)ccc3o2)c1` [Compound 167, 2-(3-(N-isopropylcarbamimidoyl)phenyl)-N-isopropylbenzofuran-5-carboxamidine], the IC50 was 13.4 ± 0.64 µM in data set [2] (setting [5]); 13.4 ± 0.64 µM in data set [2] (read-out: L. Donovani IC50); 0.473 µM in data set [1]; over 199 µM with Trypanosoma cruzi; 0.331 µM with Plasmodium falciparum; over 199 µM in the data set “in vitro”. Also, the MIC90 in [3] was > 57.8 µg/mL and > 128 µM.
